The target in experiment [1] is T1, human 5-HT2A receptor (5-HT2AR) (Homo sapiens, UniProt P28223).
T1 construct: gene HTR2A; SNAP-tagged (SNAP-Lumi4-Tb labelled) receptor transiently expressed in CHO-K1 cells; membranes; plasmid from CisBio
Nature of the experiment: TR-FRET saturation binding. Conditions: labelled compound; CHO membranes; […] GppNHp, pH […]; equilibrium, […] min. For orientation: In TR-FRET formats the signal depends on donor and acceptor labels being close together.

The target in experiment [2] is T1, human 5-HT2A receptor (5-HT2AR). In words: TR-FRET equilibrium competition binding. From the text: TR-FRET equilibrium competition binding on human 5-HT2A receptor (5-HT2AR)
For experiment [3] the target is unchanged. In words: biochemical. Further details: species or system CHO. As to conditions: read-out: koff (min^-1).

T1 sequence (P28223 whole entry): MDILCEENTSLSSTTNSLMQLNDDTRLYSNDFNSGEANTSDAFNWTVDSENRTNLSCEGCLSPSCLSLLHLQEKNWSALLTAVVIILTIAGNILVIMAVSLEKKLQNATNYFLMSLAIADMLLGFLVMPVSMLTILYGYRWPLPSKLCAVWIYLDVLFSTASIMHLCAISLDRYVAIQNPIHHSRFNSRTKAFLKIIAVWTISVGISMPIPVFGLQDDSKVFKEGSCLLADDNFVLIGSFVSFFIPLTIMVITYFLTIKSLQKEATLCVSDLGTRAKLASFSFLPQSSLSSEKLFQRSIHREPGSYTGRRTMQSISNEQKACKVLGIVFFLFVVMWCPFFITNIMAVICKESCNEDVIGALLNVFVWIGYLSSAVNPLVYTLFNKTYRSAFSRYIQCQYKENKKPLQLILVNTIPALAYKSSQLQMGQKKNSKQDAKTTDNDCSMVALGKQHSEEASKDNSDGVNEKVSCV

In general, Kd refers to a measure of binding affinity in units of concentration. Higher therefore signals lower affinity. 4F4PP oxalate-red gave a dissociation constant (Kd) in experiment [1] of 3.98 ± 0.65 nM. What is called Ki is a dissociation constant, usually derived from enzyme kinetics or from competition with a known ligand. A lower Ki goes with higher affinity. For orientation: koff means the first-order rate constant of dissociation. In experiment [2], `Cc1nc2n(c(=O)c1CCN1CCC(c3noc4cc(F)ccc34)CC1)CCCC2O` (centres unmarked) [Paliperidone] gave a Ki of 1.02 nM. In experiment [3], the koff was 0.23 min⁻¹. For `CN1CC2c3ccccc3Oc3ccc(Cl)cc3C2C1` (centres unmarked) [Asenapine], in that order: 0.661 nM and 0.7 min⁻¹.

Values taken from publication doi:10.1101/2021.11.14.468520v1, “Exploring the kinetic selectivity of antipsychotics for dopamine D2 and 5-HT2A receptors: implications for the prevalence of EPS and receptor occupancy” (biorxiv, 2021).
